These results are taken from patent US20260042762A1 (Kymera Therapeutics, Inc., priority 2018, published 2026).

The target in test [1] is T1, MerTK (Mus musculus, UniProt Q60805).
T1 construct: endogenous in cells; host or cells: RAW264 cells
T1 sequence (Q60805 19-994): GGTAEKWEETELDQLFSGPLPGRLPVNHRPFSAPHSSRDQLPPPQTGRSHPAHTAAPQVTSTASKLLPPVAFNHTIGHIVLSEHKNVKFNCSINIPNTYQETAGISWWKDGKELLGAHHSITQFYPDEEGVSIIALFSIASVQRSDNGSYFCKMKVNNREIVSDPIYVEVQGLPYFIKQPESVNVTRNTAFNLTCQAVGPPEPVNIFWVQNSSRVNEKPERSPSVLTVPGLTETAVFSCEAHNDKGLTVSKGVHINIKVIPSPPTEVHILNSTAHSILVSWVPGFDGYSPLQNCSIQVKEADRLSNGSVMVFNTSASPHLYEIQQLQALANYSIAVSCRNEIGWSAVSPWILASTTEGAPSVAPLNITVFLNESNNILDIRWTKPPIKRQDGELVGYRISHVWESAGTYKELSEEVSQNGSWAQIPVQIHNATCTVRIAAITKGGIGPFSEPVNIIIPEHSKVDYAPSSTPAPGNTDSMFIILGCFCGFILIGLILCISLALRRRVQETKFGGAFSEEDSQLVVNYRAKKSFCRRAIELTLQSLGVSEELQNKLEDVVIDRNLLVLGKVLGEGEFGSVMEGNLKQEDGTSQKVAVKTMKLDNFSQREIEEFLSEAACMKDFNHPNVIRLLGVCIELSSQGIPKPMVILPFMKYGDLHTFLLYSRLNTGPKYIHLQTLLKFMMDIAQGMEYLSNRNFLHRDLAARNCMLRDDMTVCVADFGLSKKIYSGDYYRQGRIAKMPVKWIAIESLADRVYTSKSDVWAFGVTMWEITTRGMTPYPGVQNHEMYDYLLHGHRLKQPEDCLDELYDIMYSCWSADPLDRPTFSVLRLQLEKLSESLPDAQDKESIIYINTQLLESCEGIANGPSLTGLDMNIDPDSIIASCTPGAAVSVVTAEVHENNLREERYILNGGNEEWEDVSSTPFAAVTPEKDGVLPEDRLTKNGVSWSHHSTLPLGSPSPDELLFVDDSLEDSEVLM
Put plainly: MerTK degradation in RAW264 cells (Western blot). The class given is cell-based. The following applies: RAW264.7, 0.001-1 μM, 4 hour-incubation at 37° C., read-out: RAW264 Max % MerTK Degradation. The procedure:
Compounds were reconstituted in DMSO to make 10 mM stock solutions. RAW264 cells were maintained in DMEM medium containing 10% FBS. Cells were seeded into 6-well plates with 2×10^6 cells per well. 2 μL of diluted compounds were added to cells to the final concentration of 0.001-1 μM. After a 4 hour-incubation at 37° C., cells were washed with DPBS (1×) once. Then RIPA lysis buffer with Halt Protease and Phosphatase Inhibitor Cocktail was added directly to the cells and cells were then incubated on ice for 10 min, then lysate was harvested into 1.5 mL Eppendorf tubes and centrifuged at 14,000 rpm for 10 min at 4° C. and the supernatants were collected for Western blots.
The protein concentration of cell lysates was quantified with Pierce™ BCA Protein Assay Kit. […] BCA working reagents were prepared by mixing BCA reagent A with reagent B in 50: 1 ratio. 200 μL of the BCA working reagents were added to 25 μL of BCA standard or cell lysates in microplate, and mixed thoroughly on a plate shaker for 30 seconds. After incubation at 37° C. for 30 min, the absorbance of samples at 562 nm were measured with EnVision Plate Reader.
Protein lysates were prepared in NuPAGE™ LDS sample buffer and NuPAGE™ sample reducing agent, and incubated at 95° C. for 5 min. […] The proteins were transferred to low fluorescence PVDF membranes using the Trans-Blot Turbo Transfer System. Membranes were then blocked in Odyssey blocking buffer at RT for 1 h followed by primary incubation at 4° C. overnight. The primary antibodies were MerTK goat polyclonal antibody and actin mouse monoclonal antibody. Membranes were washed three times with TBST (1×), and then incubated with IR Dye 800 CW Donkey anti-goat and IR Dye 700 CW Goat anti-mouse secondary antibodies in 1:10,000 dilution at RT for 1 h. The Western blot images were obtained using Odyssey Imaging System.

Test [2] deals with T2, MerTK (Homo sapiens, UniProt Q12866).
T2 construct: endogenous in cells; host or cells: Jurkat cells
T2 sequence (Q12866 21-999): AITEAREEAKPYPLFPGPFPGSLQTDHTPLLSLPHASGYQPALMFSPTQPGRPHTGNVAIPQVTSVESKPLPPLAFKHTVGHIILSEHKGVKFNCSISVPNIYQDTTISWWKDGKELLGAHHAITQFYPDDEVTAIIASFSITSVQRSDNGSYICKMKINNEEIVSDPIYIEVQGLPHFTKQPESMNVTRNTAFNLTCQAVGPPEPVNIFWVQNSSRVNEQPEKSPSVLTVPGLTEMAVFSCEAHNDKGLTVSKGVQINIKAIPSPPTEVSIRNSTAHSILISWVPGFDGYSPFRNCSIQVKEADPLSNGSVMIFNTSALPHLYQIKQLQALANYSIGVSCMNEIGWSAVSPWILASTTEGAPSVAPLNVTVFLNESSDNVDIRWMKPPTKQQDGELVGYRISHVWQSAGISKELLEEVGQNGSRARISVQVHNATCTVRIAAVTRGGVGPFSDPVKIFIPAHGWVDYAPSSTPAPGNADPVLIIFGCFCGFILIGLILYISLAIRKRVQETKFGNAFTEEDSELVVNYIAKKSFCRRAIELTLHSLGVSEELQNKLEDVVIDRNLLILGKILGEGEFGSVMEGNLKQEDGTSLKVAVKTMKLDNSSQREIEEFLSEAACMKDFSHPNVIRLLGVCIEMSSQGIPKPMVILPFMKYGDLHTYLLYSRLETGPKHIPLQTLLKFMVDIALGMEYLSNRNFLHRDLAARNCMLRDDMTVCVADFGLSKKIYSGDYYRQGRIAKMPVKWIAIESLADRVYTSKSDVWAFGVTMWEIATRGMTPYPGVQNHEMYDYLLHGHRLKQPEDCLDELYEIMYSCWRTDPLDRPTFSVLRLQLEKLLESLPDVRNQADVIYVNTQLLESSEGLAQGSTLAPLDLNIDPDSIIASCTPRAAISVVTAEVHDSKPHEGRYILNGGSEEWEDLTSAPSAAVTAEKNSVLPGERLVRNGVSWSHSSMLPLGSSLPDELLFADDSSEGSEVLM
As to the kind of experiment: MerTk degradation in Jurkat cells (Western blot). Format: cell-based. Particulars: 0.001-1 μM, 4 hour-incubation at 37° C., read-out: Jurkat Max % MerTK Degradation. In a few lines: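 Jurkat cells treated 4 h at 37 °C with compound at 0.001-1 μM final. RIPA lysates quantified by BCA, then MerTK probed by Western blot against actin loading control with IR-dye secondaries and Odyssey imaging.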
In general terms: Immunoblotting shows a protein as a band on a membrane.

Structures can show the parent of a compound that is named as a salt. Where two headings read alike, the source gives them in different places.

`CCCCNc1ncc2c(-c3ccc(CNCCCOCCCOCCCc4cccc5c4n(C)c(=O)n5C4CCC(=O)NC4=O)cc3)cn([C@H]3CC[C@H](O)CC3)c2n1` (stereo partly drawn) [I-6, Trans-3-[4-[3-(3-[3-[([4-[2-(butylamino)-7-[4-hydroxycyclohexyl]-7H-pyrrolo[2,3-d]pyrimidin-5-yl]phenyl]methyl)amino]propoxy]propoxy)propyl]-3-methyl-2-oxo-2,3-dihydro-1H-1,3-benzodiazol-1-yl]piperidine-2,6-dione]: the Dmax at MerTK [1] and at MerTK [2] was more than 50% each time.

Turning to `CCCCNc1ncc2c(-c3ccc(S(=O)(=O)N4CCN(CCOCCOCCOCCOCCCc5ccc6c(c5)n(C)c(=O)n6C5CCC(=O)NC5=O)CC4)cc3)cn([C@H]3CC[C@H](O)CC3)c2n1` (stereo partly drawn) [I-12, 3-(5-(1-(4-(4-(2-(Butylamino)-7-(trans-4-hydroxycyclohexyl)-7H-pyrrolo [2,3-d]pyrimidin-5-yl)phenylsulfonyl)piperazin-1-yl)-3,6,9,12-tetraoxapentadecan-15-yl)-3-methyl-2-oxo-2,3-dihydrobenzo[d]imidazol-1-yl)piperidine-2,6-dione], the Dmax was more than 50% on MerTK [1] and more than 50% at MerTK [2] (Jurkat, 4 h).

Regarding `CCCCNc1ncc2c(-c3ccc(S(=O)(=O)N4CCN(CCOCCOCCOCCOCCCc5cccc6c5n(C)c(=O)n6C5CCC(=O)NC5=O)CC4)cc3)cn([C@H]3CC[C@H](O)CC3)c2n1` (stereo partly drawn) [I-13, 3-[4-[1-(4-[4-[2-(Butylamino)-7-[trans-4-hydroxycyclohexyl]-7H-pyrrolo [2,3-d]pyrimidin-5-yl]benzenesulfonyl]piperazin-1-yl)-3,6,9,12-tetraoxapentadecan-15-yl]-3-methyl-2-oxo-2,3-dihydro-1H-1,3-benzodiazol-1-yl]piperidine-2,6-dione formate], the Dmax at MerTK [1] is more than 50%; at MerTK [2] (Jurkat, 4 h), more than 50%.

On to `O=C1CCC(N2C(=O)c3cccc(NCCOCCOCCOCCOCCN4CCN(Cc5ccc(-c6cn([C@H]7CC[C@H](O)CC7)c7nc(NCCC8CC8)ncc67)cc5)CC4)c3C2=O)C(=O)N1` (stereo partly drawn) [I-14, 4-(15-[4-[(4-[2-[(2-Cyclopropylethyl)amino]-7-[trans-4-hydroxycyclohexyl]-7H-pyrrolo[2,3-d]pyrimidin-5-yl]phenyl)methyl]piperazin-1-yl]-4,7,10,13-tetraoxa-1-azapentadecan-1-yl)-2-(2,6-dioxopiperidin-3-yl)-2,3-dihydro-1H-isoindole-1,3-dione formate], for which the Dmax at MerTK [1] is more than 50%; on MerTK [2] (Jurkat, 4 h), more than 50%.

Turning to `COCCNc1ncc2c(-c3ccc(CN4CCN(CCOCCOCCOCCOCCNc5cccc6c5C(=O)N(C5CCC(=O)NC5=O)C6=O)CC4)cc3)cn([C@H]3CC[C@H](O)CC3)c2n1` (stereo partly drawn) [I-15, 2-(2,6-Dioxopiperidin-3-yl)-4-(15-[4-[(4-[2-[(2-methoxyethyl)amino]-7-[trans-4-hydroxycyclohexyl]-7H-pyrrolo[2,3-d]pyrimidin-5-yl]phenyl)methyl]piperazin-1-yl]-4,7,10,13-tetraoxa-1-azapentadecan-1-yl)-2,3-dihydro-1H-isoindole-1,3-dione diformate], the Dmax on MerTK [1] was 20 to 50%; on MerTK [2] (Jurkat, 4 h), more than 50%.

As to `CCCCNc1ncc2c(-c3ccc(S(=O)(=O)N4CCN(C(=O)NCCCOCCCOCCCNc5cccc6c5C(=O)N(C5CCC(=O)NC5=O)C6=O)CC4)cc3)nn([C@H]3CC[C@H](O)CC3)c2n1` (stereo partly drawn) [I-19, 4-((4-(6-(Butylamino)-1-(trans-4-hydroxycyclohexyl)-1H-pyrazolo[3,4-d]pyrimidin-3-yl)phenyl)sulfonyl)-N-(3-(3-(3-((2-(2,6-dioxopiperidin-3-yl)-1,3-dioxoisoindolin-4-yl)amino)propoxy)propoxy)propyl)piperazine-1-carboxamide], the Dmax on MerTK [1] was more than 50%; on MerTK [2] (Jurkat, 4 h), more than 50%.

`CCCCNc1ncc2c(-c3ccc(S(=O)(=O)N4CCN(C(=O)NCCCOCCCNc5cccc6c5C(=O)N(C5CCC(=O)NC5=O)C6=O)CC4)cc3)nn([C@H]3CC[C@H](O)CC3)c2n1` (stereo partly drawn) [I-20, 4-((4-(6-(Butylamino)-1-(trans-4-hydroxycyclohexyl)-1H-pyrazolo[3,4-d]pyrimidin-3-yl)phenyl)sulfonyl)-N-(3-(3-((2-(2,6-dioxopiperidin-3-yl)-1,3-dioxoisoindolin-4-yl)amino)propoxy)propyl)piperazine-1-carboxamide]: the Dmax on MerTK [1] is more than 50%; at MerTK [2] (Jurkat, 4 h), more than 50%.

`Cc1ccc(CNc2ncc(-c3ccc(CN4CCN(CCOCCOCCOCCOCCNc5cccc6c5C(=O)N(C5CCC(=O)NC5=O)C6=O)CC4)cn3)c(N[C@H]3CC[C@H](O)CC3)n2)cc1` (stereo partly drawn) [I-21, 2-(2,6-Dioxopiperidin-3-yl)-4-[15-(4-[[6-(2-[[(4-methylphenyl)methyl]amino]-4-[[trans-4-hydroxycyclohexyl]amino]pyrimidin-5-yl)pyridin-3-yl]methyl]piperazin-1-yl)-4,7,10,13-tetraoxa-1-azapentadecan-1-yl]-2,3-dihydro-1H-isoindole-1,3-dione]: the Dmax on MerTK [1] was in the range of 20 to 50%; on MerTK [2] (Jurkat, 4 h), 20 to 50%.

In the case of `CCCCNc1ncc2c(-c3ccc(S(=O)(=O)N4CCN(C(=O)NCCOCCCOCCNc5cccc6c5C(=O)N(C5CCC(=O)NC5=O)C6=O)CC4)cc3)nn([C@H]3CC[C@H](O)CC3)c2n1` (stereo partly drawn) [I-23, 4-((4-(6-(Butylamino)-1-(trans-4-hydroxycyclohexyl)-1H-pyrazolo[3,4-d]pyrimidin-3-yl)phenyl)sulfonyl)-N-(2-(3-(2-((2-(2,6-dioxopiperidin-3-yl)-1,3-dioxoisoindolin-4-yl)amino)ethoxy)propoxy)ethyl)piperazine-1-carboxamide], the Dmax at MerTK [1] is 20 to 50%; on MerTK [2] (Jurkat, 4 h), more than 50%.
